Measurements from PMC9963656, “Synthesis, Molecular Docking, and Bioactivity Study of Novel Hybrid Benzimidazole Urea Derivatives: A Promising α-Amylase and α-Glucosidase Inhibitor Candidate with Antioxidant Activity” (Pharmaceutics, 2023).

Columns and labels:
[1] = Iron chelating activity assay (MCA); settings: for MCA: metal chelating activity: compound 1 mM, 562 nm
Protocol: Using the method of Zengin et al. with modification, the ability of compounds to chelate iron compared to the EDTA was estimated. To inchoate the color, a compound solution in DMSO ([…] a final concentration of 1 mM) plus ferrous chloride (25 μL, 2 mM, FeCl2) was added to 100 μL of ferrozine. At 562 nm, the absorbance of the mixture was measured in comparison to a blank (prepared similarly to a test without ferrozine). The chelating activity of the extract was calculated in equivalents to the EDTA standard calibration curve.

[2] = DPPH scavenging activity (DPPH-SA); settings: for DPPH-SA: 2,2-diphenyl-1-picrylhydrazyl scavenging activity: compound 1 mM, 517 nm
Protocol: The ability of the compounds to scavenge free radicals was tested against DPPH-stable free radicals. The degree of reduction in the DPPH violet color is directly proportional to the scavenging efficacy of the compounds. According to the method of Aroua et al., 1 mL of the DMSO solutions of the tested compounds (1 mM final concentration) was thoroughly mixed in test tubes with the DPPH solution prepared at the concentration of 300 µM in methanol. After 30 min at room temperature, the reduction in DPPH-violet color was measured at 517 nm. The DPPH-SA of the compounds was calculated using the DPPH-Trolox calibration curve.

[3] = Total antioxidant capacity (TAC), molybdate reduction; settings: for TAC: total antioxidant capacity: compound 1 mM in DMSO, 695 nm
Protocol: An amount of 2 mL of freshly prepared 0.6 M solution of sulfuric acid, a solution of ammonium molybdate (4 mM), and a buffer solution of sodium phosphate (28 mM) were placed in small glass test tubes and thoroughly mixed with the compound solution (200 μL in DMSO with a concentration of 1 mM). An amount of 2 mL of molybdate reagent was mixed with 200 μL of distilled water to make a blank test. The cylinders were warmed to 85 °C for 1.5 h before cooling to ambient temperature. At 695 nm, the produced blue color was assessed with a UV spectrophotometer, with the blank reading having to serve as the auto-zero point. The TAC results were calculated using the Trolox standard calibration curve.

α-glucosidase = target: T1, α-glucosidase (Saccharomyces cerevisiae, UniProt P53341); assay: biochemical; settings: triplicate values; read-out: α-Glucosidase Inhibition IC50 ± SEM
T1 construct: purchased Sigma-Aldrich
Protocol: The inhibition of α-glucosidase activity was measured using a modified version of a previously published method. In 100 mL of phosphate buffer (pH 6.8) containing 200 mg of bovine serum albumin, one milligram of α-glucosidase (Saccharomyces cerevisiae, Sigma-Aldrich, St. Louis, MO, USA) was dissolved (Merck, Darmstadt, Germany). The reaction mixture was made up of 10 μL of sample at various concentrations ([…]), 490 μL of phosphate buffer pH 6.8, and 250 μL of 5 mM p-nitrophenyl-D-glucopyranoside (Sigma-Aldrich, Buchs, Switzerland). After a 5 min preincubation at 37 °C, 250 μL of α-glucosidase (0.15 unit/mL) was added and incubated at 37 °C for 15 min. The reaction was stopped by adding 2000 μL Na2CO3 200 mM. α-glucosidase activity was measured using a spectrophotometer UV-Vis (Shimadzu 265, Kyoto, Japan) at 400 nm by measuring the amount of p-nitrophenol released from p-NPG. […] Equation (1) was used to calculate the percentage of inhibition.

[4] = Ferric reducing antioxidant power (FRAP) assay; settings: for FRAP: ferric reducing antioxidant power: compound 1 mM, 593 nm
Protocol: The FRAP reagent is a 1:1:10 mixture of TPTZ (2,4,6-Tris(2-pyridyl)-S-triazine, 10 mM prepared in 40 mM HCl), FeCl3.6H2O (20 mM), and acetate buffer (300 mM, pH 3.6). Accurately, 0.1 mL of the samples (final concentration 1 mM in DMSO) was thoroughly mixed with 2 mL of the FRAP reagent and incubated at room temperature for 30 min. At 593 nm, the absorbance was measured. The compounds FRAP activity was calculated using the FRAP-trolox calibration curve in trolox equivalent.

α-amylase = α-amylase (Aspergillus oryzae, UniProt P0C1B3); assay: biochemical; settings: triplicate values; read-out: α-Amylase Inhibition IC50 ± SEM
Protocol: The α-amylase inhibition activity was measured using the previously reported methodologies. An amount of 500 μL of test sample ([…]) and 500 μL of […] α-amylase (source: Aspergillus oryzae) solution (0.5 mg/mL) in […] phosphate buffer (pH 6.9) were incubated for 10 min at 25 °C. Following pre-incubation, 500 μL of 1% starch solution in 0.02 M sodium phosphate buffer (pH 6.9) was added and incubated for 10 min at 25 °C. An amount of 1 mL of dinitro salicylic acid color reagent was used to stop the reaction. The tubes were then placed in boiling water for 5 min before being cooled to room temperature. After diluting the solutions with 10 mL of distilled water, the absorbance at 540 nm was measured. […] The percentage of enzyme inhibition was calculated using the following equation:(1) % of Enzyme Inhibition=(Absorbance of control – Absorbance of compound)×100 /Absorbance of control

T1 sequence (P53341 whole entry): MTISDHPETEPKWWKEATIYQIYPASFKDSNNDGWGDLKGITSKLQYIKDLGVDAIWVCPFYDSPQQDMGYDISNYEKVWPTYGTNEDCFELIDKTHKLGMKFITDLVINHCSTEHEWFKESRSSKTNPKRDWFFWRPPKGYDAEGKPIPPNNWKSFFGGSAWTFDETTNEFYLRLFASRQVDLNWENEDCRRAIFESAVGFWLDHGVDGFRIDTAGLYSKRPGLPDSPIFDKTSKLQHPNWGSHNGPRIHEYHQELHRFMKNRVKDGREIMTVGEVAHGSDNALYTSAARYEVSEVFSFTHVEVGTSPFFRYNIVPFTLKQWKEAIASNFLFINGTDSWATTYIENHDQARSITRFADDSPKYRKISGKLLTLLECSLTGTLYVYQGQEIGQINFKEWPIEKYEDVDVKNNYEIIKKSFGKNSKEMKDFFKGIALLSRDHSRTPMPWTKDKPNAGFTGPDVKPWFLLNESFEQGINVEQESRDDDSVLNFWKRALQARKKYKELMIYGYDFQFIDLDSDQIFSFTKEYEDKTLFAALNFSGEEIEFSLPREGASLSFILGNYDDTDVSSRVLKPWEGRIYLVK

Row | Structure (SMILES) | melting point | IC50 (α-glucosidase) | IC50 (α-amylase) | MCA: metal chelating activity [1] | DPPH-SA: 2,2-diphenyl-1-picrylhydrazyl scavenging activity [2] | TAC: total antioxidant capacity [3] | FRAP: ferric reducing antioxidant power [4] | total antioxidant capacity (TAC), molybdenum (VI) reducing activity [3] | ferric reducing antioxidant power (FRAP) [4] | DPPH-SA [2] | metal chelating activity (MCA) [1]
1 | O=C(Nc1ccccc1)Nc1ccccc1-c1nc2ccccc2[nH]1 [3a, 1-(2-(1H-benzo[d]imidazol-2-yl)phenyl)-3-phenylurea] | 129 to 131 °C | 42.97 ± 0.19 µM | 40.7 ± 0.06 µM | 1.62 ± 0.10 EDTA equivalent per 1 mM of the compounds | 1.17 ± 0.07 trolox equivalent per 1 mM of the compounds | 1.33 ± 0.46 trolox equivalent per 1 mM of the compounds | 6.53 ± 0.03 trolox equivalent per 1 mM of the compounds | – | – | – | –
2 | COc1ccc(NC(=O)Nc2ccccc2-c2nc3ccccc3[nH]2)cc1 [3c, 1-(2-(1H-benzo[d]imidazol-2-yl)phenyl)-3-(4-methoxyphenyl)urea] | 197 to 199 °C | 17.47 ± 0.03 µM | 18.7 ± 0.23 µM | 1.55 ± 0.22 EDTA equivalent per 1 mM of the compounds | 1.61 ± 0.02 trolox equivalent per 1 mM of the compounds | 4.43 ± 0.53 trolox equivalent per 1 mM of the compounds | 8.65 ± 0.29 trolox equivalent per 1 mM of the compounds | 4.43 ± 0.53 mM trolox equivalents | 8.65 ± 0.29 mM trolox equivalents | – | –
3 | O=C(Nc1ccccc1-c1nc2ccccc2[nH]1)NC1CCCCC1 [3d, 1-(2-(1H-benzo[d]imidazol-2-yl)phenyl)-3-cyclohexylurea] | 330 to 332 °C | 27.47 ± 0.13 µM | 25.65 ± 0.03 µM | 1.46 ± 0.10 EDTA equivalent per 1 mM of the compounds | 2.89 ± 1.07 trolox equivalent per 1 mM of the compounds | 2.47 ± 0.42 trolox equivalent per 1 mM of the compounds | 5.67 ± 0.69 trolox equivalent per 1 mM of the compounds | – | – | 2.89 ± 1.07 mM trolox equivalents | –
4 | CC(C)NC(=O)Nc1ccccc1-c1nc2ccccc2[nH]1 [3e, 1-(2-(1H-benzo[d]imidazol-2-yl)phenyl)-3-isopropylurea] | 196 to 198 °C | 21.97 ± 0.19 µM | 20.7 ± 0.06 µM | 1.47 ± 0.09 EDTA equivalent per 1 mM of the compounds | 1.70 ± 0.01 trolox equivalent per 1 mM of the compounds | 2.52 ± 0.80 trolox equivalent per 1 mM of the compounds | 2.75 ± 0.15 trolox equivalent per 1 mM of the compounds | – | – | – | –
5 | CCCCNC(=O)Nc1ccccc1-c1nc2ccccc2[nH]1 [3f, 1-(2-(1H-benzo[d]imidazol-2-yl)phenyl)-3-butylurea] | 196 to 198 °C | 29.01 ± 0.12 µM | 28.33 ± 0.02 µM | 1.40 ± 0.07 EDTA equivalent per 1 mM of the compounds | 1.55 ± 0.03 trolox equivalent per 1 mM of the compounds | 8.50 ± 0.87 trolox equivalent per 1 mM of the compounds | 5.99 ± 0.02 trolox equivalent per 1 mM of the compounds | 8.50 ± 0.87 mM trolox equivalents | – | – | –

Now from value to compound, other results behind:

Row | melting point | IC50 (α-glucosidase) | IC50 (α-amylase) | Structure (SMILES) | MCA: metal chelating activity [1] | DPPH-SA: 2,2-diphenyl-1-picrylhydrazyl scavenging activity [2] | TAC: total antioxidant capacity [3] | FRAP: ferric reducing antioxidant power [4] | total antioxidant capacity (TAC), molybdenum (VI) reducing activity [3] | ferric reducing antioxidant power (FRAP) [4] | DPPH-SA [2] | metal chelating activity (MCA) [1]
6 | 203 to 205 °C | 45.97 ± 0.19 µM | 41.7 ± 0.06 µM | O=C(Nc1ccccc1-c1nc2ccccc2[nH]1)Nc1cccc2ccccc12 [3b, 1-(2-(1H-benzo[d]imidazol-2-yl)phenyl)-3-(naphthalen-1-yl)urea] | 1.55 ± 0.07 EDTA equivalent per 1 mM of the compounds | 0.96 ± 0.06 trolox equivalent per 1 mM of the compounds | 5.16 ± 0.69 trolox equivalent per 1 mM of the compounds | 9.25 ± 0.20 trolox equivalent per 1 mM of the compounds | 5.16 ± 0.69 mM trolox equivalents | – | – | –
7 | 190 to 192 °C | 23.01 ± 0.12 µM | 22.33 ± 0.12 µM | O=C(Nc1ccc(NC(=O)Nc2ccccc2-c2nc3ccccc3[nH]2)cc1)Nc1ccccc1-c1nc2ccccc2[nH]1 [3g, 1,1’-(1,4-phenylene)bis(3-(2-(1H-benzo[d]imidazol-2-yl)phenyl)urea)] | 1.36 ± 0.09 EDTA equivalent per 1 mM of the compounds | 3.86 ± 0.04 trolox equivalent per 1 mM of the compounds | 10.06 ± 1.51 trolox equivalent per 1 mM of the compounds | 16.12 ± 0.29 trolox equivalent per 1 mM of the compounds | 10.06 ± 1.51 mM trolox equivalents | 16.12 ± 0.29 mM trolox equivalents | 3.86 ± 0.04 mM trolox equivalents | –
8 | 190 to 192 °C | 44.99 ± 0.09 µM | 43.04 ± 0.02 µM | O=C(NCC1CCC(CNC(=O)Nc2ccccc2-c2nc3ccccc3[nH]2)CC1)Nc1ccccc1-c1nc2ccccc2[nH]1 (centres unmarked) [3h, 1,1′-(cyclohexane-1,4-diylbis(methylene))bis(3-(2-(1H-benzo[d]imidazol-2-yl)phenyl)urea)] | 2.95 ± 0.21 EDTA equivalent per 1 mM of the compounds | 1.09 ± 0.03 trolox equivalent per 1 mM of the compounds | 2.25 ± 0.65 trolox equivalent per 1 mM of the compounds | 6.79 ± 0.50 trolox equivalent per 1 mM of the compounds | – | – | – | 2.95 ± 0.21 mM EDTA equivalents
